Source: US11524966B1 (Valo Early Discovery, Inc., priority 2017, dated 2022)

Target: T1, USP28 (His-tagged USP28-FL-mammalian) (Homo sapiens, UniProt Q96RU2)
T1 construct: Expression of USP28 (1-1077)-TEV-6*His (pTT5 vector); made in house; host or cells: Expi293f cells (pTT5 vector)
T1 sequence (Q96RU2 1-1077): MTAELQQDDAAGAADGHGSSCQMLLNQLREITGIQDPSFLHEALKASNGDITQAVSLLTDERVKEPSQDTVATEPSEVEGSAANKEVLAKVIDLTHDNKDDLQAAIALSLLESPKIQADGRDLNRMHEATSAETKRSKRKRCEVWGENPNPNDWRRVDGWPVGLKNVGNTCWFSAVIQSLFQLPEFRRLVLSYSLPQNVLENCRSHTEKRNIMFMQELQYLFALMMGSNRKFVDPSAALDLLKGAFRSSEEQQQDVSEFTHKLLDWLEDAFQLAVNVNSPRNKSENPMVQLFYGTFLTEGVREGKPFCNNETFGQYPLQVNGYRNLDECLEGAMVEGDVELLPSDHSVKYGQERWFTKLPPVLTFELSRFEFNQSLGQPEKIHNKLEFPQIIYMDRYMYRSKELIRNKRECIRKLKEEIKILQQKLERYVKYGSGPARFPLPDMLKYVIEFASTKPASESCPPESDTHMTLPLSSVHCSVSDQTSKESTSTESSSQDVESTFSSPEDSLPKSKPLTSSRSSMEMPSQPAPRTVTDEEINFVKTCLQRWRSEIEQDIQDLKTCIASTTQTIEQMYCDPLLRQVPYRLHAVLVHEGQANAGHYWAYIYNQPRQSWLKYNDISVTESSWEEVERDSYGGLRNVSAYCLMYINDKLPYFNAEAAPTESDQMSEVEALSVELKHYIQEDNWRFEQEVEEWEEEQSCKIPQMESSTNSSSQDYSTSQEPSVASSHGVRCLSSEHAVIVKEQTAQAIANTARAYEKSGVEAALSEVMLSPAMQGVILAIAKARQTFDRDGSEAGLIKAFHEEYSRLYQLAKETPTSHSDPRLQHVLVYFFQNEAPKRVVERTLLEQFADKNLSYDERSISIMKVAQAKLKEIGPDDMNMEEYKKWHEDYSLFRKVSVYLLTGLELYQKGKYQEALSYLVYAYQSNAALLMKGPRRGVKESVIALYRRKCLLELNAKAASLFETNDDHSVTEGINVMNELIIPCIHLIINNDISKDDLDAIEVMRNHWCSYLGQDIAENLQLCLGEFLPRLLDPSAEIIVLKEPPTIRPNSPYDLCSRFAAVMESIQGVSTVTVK
Assay: Ubiquitin-Rhodamine 110 Assay for USP28 Activity, Example A-1(a)
Format: biochemical
Details: Ubiquitin-Rhodamine 110 assay, Example A-1(a); read-out: USP28 A-1(a) IC50 range
Method in brief: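 IC50 from 4-parameter logistic fit of percent inhibition versus no-enzyme and DMSO controls; compounds 25 μM to 1.3 nM, 3-fold. Ub-Rh110 cleavage (25 nM, below Km) by […] mammalian-expressed USP28-FL-His ran 45 min at room temperature, stopped with 10 mM citric acid, read ex 485/em 535.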

| Structure (SMILES) | IC50 |
| --- | --- |
| Cc1nc2sc(C(=O)N[C@H]3COc4cc(N5CCNCC5)ncc4C3)c(N)c2cc1F [Example 72, (R)-3-amino-5-fluoro-6-methyl-N-(7-(piperazin-1-yl)-3,4-dihydro-2H-pyrano[3,2-c]pyridin-3-yl)thieno[2,3-b]pyridine-2-carboxamide] | 0.001 to 0.05 µM |
| C[C@H]1CCc2cc(C(=O)N[C@H]3COc4cc(N5CC6CCC(C5)N6)ccc4C3)cnc2N1 [Example 73, (7S)-N-((3R)-7-(3,8-diazabicyclo[3.2.1]octan-3-yl)chroman-3-yl)-7-methyl-5,6,7,8-tetrahydro-1,8-naphthyridine-3-carboxamide] | > 2 µM |
| C[C@@H]1CCc2cc(C(=O)N[C@H]3COc4cc(N5CC6CCC(C5)N6)ccc4C3)cnc2N1 [Example 74, (7R)-N-((3R)-7-(3,8-diazabicyclo[3.2.1]octan-3-yl)chroman-3-yl)-7-methyl-5,6,7,8-tetrahydro-1,8-naphthyridine-3-carboxamide] | 0.05 to 0.2 µM |
| Cc1ccc2c(N)c(C(=O)N[C@H]3COc4cc(N5C[C@@H]6CC[C@H]5CN6)ncc4C3)sc2n1 [Example 75, N-((R)-7-((1S, 4S)-2 5-diazabicyclo[2.2.2]octan-2-yl)-3,4-dihydro-2H-pyrano[3,2-c]pyridin-3-yl)-3-amino-6-methylthieno[2,3-b]pyridine-2-carboxamide] | 0.001 to 0.05 µM |
| Cc1ccc2c(N)c(C(=O)N[C@H]3COc4cc(N5C[C@H]6CC[C@@H]5CN6)ncc4C3)sc2n1 [Example 76, N-((R)-7-((1 R,4R)-2,5-diazabicyclo[2.2.2]octan-2-yl)-3,4-dihydro-2H-pyrano[3,2-c]pyridin-3-yl)-3-amino-6-methylthieno[2,3-b]pyridine-2-carboxamide] | 0.001 to 0.05 µM |
| Cc1cnc2c(N)c(C(=O)N[C@H]3COc4c(C#N)c(N5CC6CC(C5)N6)cc(F)c4C3)sc2n1 [Example 77, N-((3R)-7-(3,6-diazabicyclo[3.1.1]heptan-3-yl)-8-cyano-5-fluorochroman-3-yl)-7-amino-3-methylthieno[2,3-b]pyrazine-6-carboxamide] | 0.05 to 0.2 µM |
| Cc1ccc2c(N)c(C(=O)N[C@H]3COc4c(F)c(N5CC6CNCC(C5)O6)cc(F)c4C3)sc2n1 [Example 78, N-((3R)-7-(9-oxa-3,7-diazabicyclo[3.3.1]nonan-3-yl)-5,8-difluorochroman-3-yl)-3-amino-6-methylthieno[2,3-b]pyridine-2-carboxamide] | 0.001 to 0.05 µM |
| Cc1ccc2c(N)c(C(=O)N[C@H]3COc4cc(N5CC6CNCC(C5)O6)c(F)c(F)c4C3)sc2n1 [Example 79, N-((3R)-7-(9-oxa-3,7-diazabicyclo[3.3.1]nonan-3-yl)-5,6-difluorochroman-3-yl)-3-amino-6-methylthieno[2,3-b]pyridine-2-carboxamide] | 0.001 to 0.05 µM |
| Cc1ccc2c(N)c(C(=O)N[C@H]3COc4cc([C@H]5CCNC[C@@H]5F)ccc4C3)sc2n1 [Example 80, 3-amino-N-((R)-7-((3R,4R)-3-fluoropiperidin-4-yl)chroman-3-yl)-6-methylthieno[2,3-b]pyridine-2-carboxamide] | 0.001 to 0.05 µM |
| Cc1ccc2c(N)c(C(=O)N[C@H]3COc4cc([C@@H]5CCNC[C@H]5F)ccc4C3)sc2n1 [Example 81, 3-amino-N-((R)-7-((3S,4S)-3-fluoropiperidin-4-yl)chroman-3-yl)-6-methylthieno[2,3-b]pyridine-2-carboxamide] | 0.001 to 0.05 µM |
| Cc1ccc2c(N)c(C(=O)N[C@H]3COc4cc([C@H]5CCNC[C@H]5F)ccc4C3)sc2n1 [Example 82, 3-amino-N-((R)-7-((3S,4R)-3-fluoropiperidin-4-yl)chroman-3-yl)-6-methylthieno[2,3-b]pyridine-2-carboxamide] | 0.001 to 0.05 µM |
| Cc1ccc2c(N)c(C(=O)N[C@H]3COc4cc([C@@H]5CCNC[C@@H]5F)ccc4C3)sc2n1 [Example 83, 3-amino-N-((R)-7-((3R,4S)-3-fluoropiperidin-4-yl)chroman-3-yl)-6-methylthieno[2,3-b]pyridine-2-carboxamide] | 0.001 to 0.05 µM |
| CCn1ccc2cc(C(=O)N[C@H]3COc4c(F)c([C@@H]5CCNC[C@@H]5O)cc(F)c4C3)nnc21 [Example 84, N-((R)-5,8-difluoro-7-((3R,4S)-3-hydroxypiperidin-4-yl)chroman-3-yl)-7-ethyl-7H-pyrrolo[2,3-c]pyridazine-3-carboxamide] | 0.2 to 2 µM |
| CCn1ccc2cc(C(=O)N[C@H]3COc4c(F)c([C@H]5CCNC[C@H]5O)cc(F)c4C3)nnc21 [Example 85, N-((R)-5,8-difluoro-7-((3S,4R)-3-hydroxypiperidin-4-yl)chroman-3-yl)-7-ethyl-7H-pyrrolo[2,3-c]pyridazine-3-carboxamide] | 0.2 to 2 µM |
| CO[C@@H]1CN(c2cc(F)c3c(c2F)OC[C@H](NC(=O)c2sc4nc(C)ccc4c2N)C3)C[C@H]1N [Example 86] | 0.001 to 0.05 µM |
| CO[C@H]1CN(c2cc(F)c3c(c2F)OC[C@H](NC(=O)c2sc4nc(C)ccc4c2N)C3)C[C@@H]1N [Example 87, 3-amino-N-((R)-7-((3S,4S)-3-amino-4-methoxypyrrolidin-1-yl)-5,8-difluorochroman-3-yl)-6-methylthieno[2,3-b]pyridine-2-carboxamide] | 0.001 to 0.05 µM |
| Cc1cc(C(F)F)c2c(N)c(C(=O)N[C@H]3COc4cc(N5CC6CNCC(C5)O6)ccc4C3)sc2n1 [Example 88, N-((3R)-7-(9-oxa-3,7-diazabicyclo[3.3.1]nonan-3-yl)chroman-3-yl)-3-amino-4-(difluoromethyl)-6-methylthieno[2,3-b]pyridine-2-carboxamide] | 0.001 to 0.05 µM |
| O=C(N[C@H]1COc2c(F)c(N3CC4CCC(C3)N4)cc(F)c2C1)c1cnc2c(c1)[C@@H]1C[C@@H]1CN2 [Example 89, (1aS, 7bR)-N-((3R)-7-(3 8-diazabicyclo[3.2.1]octan-3-yl)-5,8-difluorochroman-3-yl)-1a,2,3,7b-tetrahydro-1H-cyclopropa[c][1,8]naphthyridine-6-carboxamide] | 0.001 to 0.05 µM |
| O=C(N[C@H]1COc2c(F)c(N3CC4CCC(C3)N4)cc(F)c2C1)c1cnc2c(c1)[C@H]1C[C@H]1CN2 [Example 90, (1aR,7bS)-N-((3R)-7-(3,8-diazabicyclo[3.2.1]octan-3-yl)-5,8-difluorochroman-3-yl)-1a,2,3,7b-tetrahydro-1H-cyclopropa[c][1,8]naphthyridine-6-carboxamide] | 0.2 to 2 µM |
| CO[C@@H]1CN(c2ccc3c(c2F)OC[C@H](NC(=O)c2sc4nc(C)ccc4c2N)C3)C[C@H]1N [Example 91, 3-amino-N-[(3R )-7-[(3R,4R)-3-amino-4-methoxypyrrolidin-1-yl]-8-fluoro-3,4-dihydro-2H-1-benzopyran-3-yl]-6-methylthieno[2,3-b]pyridine-2-carboxamide] | 0.05 to 0.2 µM |
| CO[C@H]1CN(c2ccc3c(c2F)OC[C@H](NC(=O)c2sc4nc(C)ccc4c2N)C3)C[C@@H]1N [Example 92, 3-amino-N-[(3R)-7-[(3S,4S)-3-amino-4-methoxypyrrolidin-1-yl]-8-fluoro-3,4-dihydro-2H-1-benzopyran-3-yl]-6-methylthieno[2,3-b]pyridine-2-carboxamide] | 0.001 to 0.05 µM |
| CO[C@@H]1CN(c2cc3c(cc2F)C[C@@H](NC(=O)c2sc4nc(C)ccc4c2N)CO3)C[C@H]1N [Example 93, 3-amino-N-[(3R)-7-[(3R,4R)-3-amino-4-methoxypyrrolidin-1-yl]-6-fluoro-3,4-dihydro-2H-1-benzopyran-3-yl]-6-methylthieno[2,3-b]pyridine-2-carboxamide] | 0.05 to 0.2 µM |
